Test results reported in patent US11247990B1, “Bicyclic fused pyridine compounds as inhibitors of TAM kinases” (ARRAY BIOPHARMA INC., priority 2017, dated 2022).

Key:
[1] = target: GST-tagged recombinant human TYRO3 kinase domain (Homo sapiens (Human), UniProt Q06418); assay: TYRO3 Enzyme Assay (LanthaScreen Eu Kinase Binding, TR-FRET); details: averaged IC50
Method: (§1) Compounds of Formula I were screened for their ability to inhibit TYRO3 kinase using Invitrogen's LanthaScreen™ Eu Kinase Binding technology. […] After a 60-minute incubation at 22° C., the reaction was measured using a PerkinElmer EnVision multimode plate reader via TR-FRET dual wavelength detection, and the percent of control (POC) calculated using a ratiometric emission factor. […] The POC values were fit to a 4 parameter logistic curve and the IC50 value is point where the curve crosses 50 POC.

[2] = target: His-tagged recombinant human MER cytoplasmic domain (Homo sapiens (Human), UniProt Q12866); assay: MER Enzyme Assay (LanthaScreen Eu Kinase Binding, TR-FRET); details: averaged IC50
Method: as §1, with “inhibit MER” for “inhibit TYRO3”, “(POC) was” for “(POC)”, “values are” for “values were”

His-tagged recombinant human MER cytoplasmic domain, sequence (Q12866 527-999): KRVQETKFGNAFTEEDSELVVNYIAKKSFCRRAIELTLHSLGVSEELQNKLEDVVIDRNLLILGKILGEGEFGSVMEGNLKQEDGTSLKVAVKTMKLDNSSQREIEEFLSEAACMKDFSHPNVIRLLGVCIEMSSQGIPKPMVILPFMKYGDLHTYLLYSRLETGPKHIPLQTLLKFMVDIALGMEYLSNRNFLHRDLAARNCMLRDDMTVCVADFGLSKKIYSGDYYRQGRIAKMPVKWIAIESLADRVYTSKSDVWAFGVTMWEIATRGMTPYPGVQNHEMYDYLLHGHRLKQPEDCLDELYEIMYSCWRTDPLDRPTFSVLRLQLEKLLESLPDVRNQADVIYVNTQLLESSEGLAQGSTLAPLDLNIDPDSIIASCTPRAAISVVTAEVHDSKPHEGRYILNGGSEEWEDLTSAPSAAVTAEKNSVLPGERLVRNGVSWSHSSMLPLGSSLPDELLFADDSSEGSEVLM
GST-tagged recombinant human TYRO3 kinase domain, sequence (Q06418 518-790): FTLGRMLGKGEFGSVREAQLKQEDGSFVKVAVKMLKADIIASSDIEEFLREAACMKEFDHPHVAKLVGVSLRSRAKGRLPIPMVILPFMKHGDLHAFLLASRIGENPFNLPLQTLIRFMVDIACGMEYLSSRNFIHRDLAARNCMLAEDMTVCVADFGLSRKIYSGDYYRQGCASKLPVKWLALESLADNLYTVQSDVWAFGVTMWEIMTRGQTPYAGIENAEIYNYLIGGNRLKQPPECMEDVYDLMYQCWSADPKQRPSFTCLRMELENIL

Structure (SMILES) | IC50 [1] | IC50 [2]
CCn1nc(O[C@H]2CC[C@@H](n3nc(-c4cnn(C)c4)c4cnc(NC)cc43)CC2)ccc1=O [Example 14, 2-ethyl-6-(((1s,4s)-4-(3-(1-methyl-1H-pyrazol-4-yl)-6-(methylamino)-1H-pyrazolo[4,3-c]pyridin-1-yl)cyclohexyl)oxy)pyridazin-3(2H)-one] | 1000 to 10000 nM | –
CCNc1cc2c(cn1)c(C1CCCC1)nn2[C@H]1CC[C@@H](Oc2nccc(C(F)(F)F)c2F)CC1 [Example 321, 3-cyclopentyl-N-ethyl-1-((1s,4s)-4-((3-fluoro-4-(trifluoromethyl)pyridin-2-l)oxy)cyclohexyl)-1H-pyrazolo[4,3-c]pyridin-6-amine] | 1000 to 10000 nM | –
CNc1cc2c(cn1)c(-c1cnn(C)c1)nn2[C@H]1CC[C@@H](Oc2ccc(C(=O)NC(C)C)cc2)CC1 [Example 458, N-isopropyl-4-(((1s,4s)-4-(3-(1-methyl-1H-pyrazol-4-yl)-6-(methylamino)-1H-pyrazolo[4,3-c]pyridin-1-yl)cyclohexyl)oxy)benzamide] | 1000 to 10000 nM | –
CNc1cc2c(cn1)c(-c1cnn(C)c1)nn2[C@H]1CC[C@@H](Oc2nccc(C)n2)CC1 [Example 126, N-methyl-3-(1-methyl-1H-pyrazol-4-yl)-1-((1s,4s)-4-((4-methylpyrimidin-2-yl)oxy)cyclohexyl)-1H-pyrazolo[4,3-c]pyridin-6-amine] | 1000 to 10000 nM | –
CNc1cc2c(cn1)c(-c1ccn(C)n1)cn2[C@H]1CC[C@@H](Oc2ccc(=O)n(C)n2)CC1 [Example 74, 2-methyl-6-(((1s,4s)-4-(3-(1-methyl-1H-pyrazol-3-yl)-6-(methylamino)-1H-pyrrolo[3,2-c]pyridin-1-yl)cyclohexyl)oxy)pyridazin-3(2H)-one] | 1000 to 10000 nM | –
CNc1cc2c(cn1)c(-c1cnn(C)c1)nn2[C@H]1CC[C@@H](Oc2ccc(C(=O)NCCOC)cc2)CC1 [Example 459, N-(2-methoxyethyl)-4-(((1s,4s)-4-(3-(1-methyl-1H-pyrazol-4-yl)-6-(methylamino)-1H-pyrazolo[4,3-c]pyridin-1-yl)cyclohexyl)oxy)benzamide] | 1000 to 10000 nM | –
CCCNc1cc2c(cn1)c(-c1cnn(C)c1)nn2[C@H]1CC[C@@H](Oc2ccccc2F)CC1 [Example 405, 1-((1s,4s)-4-(2-fluorophenoxy)cyclohexyl)-3-(1-methyl-1H-pyrazol-4-yl)-N-propyl-1H-pyrazolo[4,3-c]pyridin-6-amine] | < 10 nM | –
CNc1cc2c(cn1)c(-c1cnn(C)c1)nn2[C@H]1CC[C@@H](Oc2ccc(=O)n(CC(C)C)n2)CC1 [Example 16, 2-isobutyl-6-(((1s,4s)-4-(3-(1-methyl-1H-pyrazol-4-yl)-6-(methylamino)-1H-pyrazolo[4,3-c]pyridin-1-yl)cyclohexyl)oxy)pyridazin-3(2H)-one] | 1000 to 10000 nM | –
CNc1cc2c(cn1)c(-c1cnn(C)c1)nn2[C@H]1CC[C@@H](Oc2nn(C)c(=O)cc2C)CC1 [Example 6, 2,5-dimethyl-6-(((1s,4s)-4-(3-(1-methyl-1H-pyrazol-4-yl)-6-(methylamino)-1H-pyrazolo[4,3-c]pyridin-1-yl)cyclohexyl)oxy)pyridazin-3(2H)-one] | 1000 to 10000 nM | –
CNc1cc2c(cn1)c(-c1cnn(C)c1)nn2[C@H]1CC[C@@H](Oc2ccc(=O)n(CCOC)n2)CC1 [Example 17, 2-(2-methoxyethyl)-6-(((1s,4s)-4-(3-(1-methyl-1H-pyrazol-4-yl)-6-(methylamino)-1H-pyrazolo[4,3-c]pyridin-1-yl)cyclohexyl)oxy)pyridazin-3(2H)-one] | 1000 to 10000 nM | –
CCNc1cc2c(cn1)c(-c1cnn(C)c1)nn2[C@H]1CC[C@H](Oc2cccc(F)c2)CC1 [Example 475, N-ethyl-1-((1r,4r)-4-(3-fluorophenoxy)cyclohexyl)-3-(1-methyl-1H-pyrazol-4-yl)-1H-pyrazolo[4,3-c]pyridin-6-amine] | 1000 to 10000 nM | –
CCNc1cc2c(cn1)c(-c1cnn(C)c1)nn2[C@H]1CC[C@@H](Oc2cc(C#N)ccn2)CC1 [Example 200, 2-(((1s,4s)-4-(6-(ethylamino)-3-(1-methyl-1H-pyrazol-4-yl)-1H-pyrazolo[4,3-c]pyridin-1-yl)cyclohexyl)oxy)isonicotinonitrile] | – | < 10 nM
CCNc1cc2c(cn1)c(-c1cnn(C[C@@H](O)C(C)(C)O)c1)nn2[C@H]1CC[C@@H](Oc2cccc(Cl)c2)CC1 [Example 443, (R)-1-(4-(1-((1s,4S)-4-(3-chlorophenoxy)cyclohexyl)-6-(ethylamino)-1H-pyrazolo[4,3-c]pyridin-3-yl)-1H-pyrazol-1-yl)-3-methylbutane-2,3-diol] | – | < 10 nM
CCNc1cc2c(cn1)c(Br)nn2[C@H]1CC[C@@H](Oc2ccc(=O)[nH]c2C(F)(F)F)CC1 [Example 106] | – | < 10 nM
CNc1cc2c(cn1)c(-c1cnn(C)c1)nn2[C@H]1CC[C@@H](Oc2nccc(C(F)(F)F)n2)CC1 [Example 153, N-methyl-3-(1-methyl-1H-pyrazol-4-yl)-1-((1s,4s)-4-((4-(trifluoromethyl)pyrimidin-2-yl)oxy)cyclohexyl)-1H-pyrazolo[4,3-c]pyridin-6-amine] | – | < 10 nM
CCNc1cc2c(cn1)c(-c1ccc(CN3CCN(C)CC3)cc1)nn2[C@H]1CC[C@@H](Oc2cn(C)nc2C)CC1 [Example 229, 1-((1s,4s)-4-((1,3-dimethyl-1H-pyrazol-4-yl)oxy)cyclohexyl)-N-ethyl-3-(4-((4-methylpiperazin-1-yl)methyl)phenyl)-1H-pyrazolo[4,3-c]pyridin-6-amine] | – | < 10 nM
CCNc1cc2c(cn1)c(-c1cnn(C(CO)CO)c1)nn2[C@H]1CC[C@@H](Oc2ccc(F)cc2)CC1 [Example 413] | – | < 10 nM
CCNc1cc2c(cn1)c(C1CCCOC1)nn2[C@H]1CC[C@@H](Oc2nccc(C(F)(F)F)c2F)CC1 (stereo partly shown) [Example 318, N-ethyl-1-((1s,4s)-4-((3-fluoro-4-(trifluoromethyl)pyridin-2-yl)oxy)cyclohexyl)-3-(tetrahydro-2H-pyran-3-yl)-1H-pyrazolo[4,3-c]pyridin-6-amine] | – | < 10 nM
CCNc1cc2c(cn1)c(-c1cnn(C)c1)nn2[C@H]1CC[C@@H](Oc2nccnc2C)CC1 [Example 189, N-ethyl-3-(1-methyl-1H-pyrazol-4-yl)-1-((1s,4s)-4-((3-methylpyrazin-2-yl)oxy)cyclohexyl)-1H-pyrazolo[4,3-c]pyridin-6-amine] | – | < 10 nM
CCNc1cc2c(cn1)c(-c1cnn(C(CO)CO)c1)nn2[C@H]1CC[C@@H](Oc2cccc(F)c2)CC1 [Example 412, 2-(4-(6-(ethylamino)-1-((1s,4s)-4-(3-fluorophenoxy)cyclohexyl)-1H-pyrazolo[4,3-c]pyridin-3-yl)-1H-pyrazol-1-yl)propane-1,3-diol] | – | < 10 nM
CCNc1cc2c(cn1)c(-c1ccc(CN3CCN(CCOC)CC3)cc1)nn2[C@H]1CC[C@@H](Oc2ccc(=O)n(C)n2)CC1 [Example 82, 6-(((1s,4s)-4-(6-(ethylamino)-3-(4-((4-(2-methoxyethyl)piperazin-1-yl)methyl)phenyl)-1H-pyrazolo[4,3-c]pyridin-1-yl)cyclohexyl)oxy)-2-methylpyridazin-3(2H)-one] | – | < 10 nM
CCNc1cc2c(cn1)c(-c1ccc(CN3CC(C)(O)C3)cc1)nn2[C@H]1CC[C@@H](Oc2ccc(=O)n(C)n2)CC1 [Example 90, 6-(((1s,4s)-4-(6-(ethylamino)-3-(4-((3-hydroxy-3-methylazetidin-1-yl)methyl)phenyl)-1H-pyrazolo[4,3-c]pyridin-1-yl)cyclohexyl)oxy)-2-methylpyridazin-3(2H)-one] | – | < 10 nM
CNc1cc2c(cn1)c(-c1cnn(C)c1)nn2[C@H]1CC[C@@H](Oc2c(F)cccc2F)CC1 [Example 356, 1-((1s,4s)-4-(2,6-difluorophenoxy)cyclohexyl)-N-methyl-3-(1-methyl-1H-pyrazol-4-yl)-1H-pyrazolo[4,3-c]pyridin-6-amine] | – | < 10 nM
CCNc1cc2c(cn1)c(-c1cnn(C)c1)nn2[C@H]1CC[C@@H](Oc2cccnc2CC)CC1 [Example 193, N-ethyl-1-((1s,4s)-4-((2-ethylpyridin-3-yl)oxy)cyclohexyl)-3-(1-methyl-1H-pyrazol-4-yl)-1H-pyrazolo[4,3-c]pyridin-6-amine] | – | < 10 nM
CCNc1cc2c(cn1)c(-c1cnn(C(CO)CO)c1)nn2[C@H]1CC[C@@H](Oc2ccc(F)c(F)c2)CC1 [Example 418, 2-(4-(1-((1s,4s)-4-(3,4-difluorophenoxy)cyclohexyl)-6-(ethylamino)-1H-pyrazolo[4,3-c]pyridin-3-yl)-1H-pyrazol-1-yl)propane-1,3-diol] | – | < 10 nM
CCNc1cc2c(cn1)c(-c1cnn(C)c1)nn2[C@H]1CC[C@@H](Oc2cnnn2CC)CC1 [Example 225, N-ethyl-1-((1 s,4s)-4-((1-ethyl-1H-1,2,3-triazol-5-yl)oxy)cyclohexyl)-3-(1-methyl-1H-pyrazol-4-yl)-1H-pyrazolo[4,3-c]pyridin-6-amine] | – | < 10 nM
CCNc1cc2c(cn1)c(-c1cnc(OC)nc1)nn2[C@H]1CC[C@@H](Oc2nccc(C(F)(F)F)c2F)CC1 [Example 269, N-ethyl-1-((1s,4s)-4-((3-fluoro-4-(trifluoromethyl)pyridin-2-yl)oxy)cyclohexyl)-3-(2-methoxypyrimidin-5-yl)-1H-pyrazolo[4,3-c]pyridin-6-amine] | – | < 10 nM
CCNc1cc2c(cn1)n(-c1ccc(CN3CCN(C)CC3)cc1)nc2[C@H]1CC[C@@H](Oc2ccccc2F)CC1 [Example 482, N-ethyl-3-((1s,4s)-4-(2-fluorophenoxy)cyclohexyl)-1-(4-((4-methylpiperazin-1-yl)methyl)phenyl)-1H-pyrazolo[3,4-c]pyridin-5-amine] | – | < 10 nM
